Tested on: diarrhea-predominant IBS subjects
Assay: 3007 Study: open-label 52-week safety study, adverse events and withdrawals
Conditions: Cilansetron 2 mg/Cilansetron 2 mg

Cc1nccn1C[C@H]1CCc2c(c3cccc4c3n2CCC4)C1=O [cilansetron, (R)-(−)-4,5,6,8,9,10-hexahydro-10-[(2-methyl-1H-imidazol-1-yl)methyl]-11H-pyrido-[3,2,1-jk]-carbazol-11-one]
TEAE: Infections and Infestations: 106 (41%) n (%)
TEAE: Influenza: 11 (4%) n (%)
TEAE: Influenza Viral Infections: 11 (4%) n (%)
TEAE: Inguinal Hernia NOS: 0 n (%)
TEAE: Inguinal Hernias: 0 n (%)
TEAE: Injury, Poisoning and Procedural Complications: 26 (10%) n (%)
TEAE: Intervertebral Disc Degeneration NOS: 2 (<1%) n (%)
TEAE: Intervertebral Disc Disorder NOS: 1 (<1%) n (%)
TEAE: Intervertebral Disc Disorders NEC: 5 (2%) n (%)
TEAE: Intervertebral Disc Herniation: 4 (2%) n (%)
TEAE: Intestinal Haemorrhages: 4 (2%) n (%)
TEAE: Intraocular Pressure Increased: 1 (<1%) n (%)
TEAE: Investigations: 77 (30%) n (%)
TEAE: Irritable Bowel Syndrome: 1 (<1%) n (%)
TEAE: Irritable Bowel Syndrome Aggravated: 3 (1%) n (%)
TEAE: Joint Related Disorders NEC: 1 (<1%) n (%)
TEAE: Joint Related Signs and Symptoms: 11 (4%) n (%)
TEAE: Joint Sprain: 1 (<1%) n (%)
TEAE: Joint Swelling: 1 (<1%) n (%)
TEAE: Kidney Infection NOS: 0 n (%)
TEAE: Laceration: 3 (1%) n (%)
TEAE: Ligament Sprain: 1 (<1%) n (%)
TEAE: Limb Discomfort NOS: 0 n (%)
TEAE: Limb Injuries NEC (Incl Traumatic Amputation): 1 (<1%) n (%)
TEAE: Limb Injury NOS: 2 (<1%) n (%)
TEAE: Lip and Palate Disorders NEC: 0 n (%)
TEAE: Liver Function Analyses: 12 (5%) n (%)
TEAE: Liver Function Tests NOS Abnormal: 0 n (%)
TEAE: Localised Infection: 1 (<1%) n (%)
TEAE: Localised Osteoarthritis: 1 (<1%) n (%)
TEAE: Loss of Consciousness: 1 (<1%) n (%)
TEAE: Lower Limb Fracture NOS: 0 n (%)
TEAE: Lower Limb Fractures and Dislocations: 1 (<1%) n (%)
TEAE: Lower Respiratory Tract and Lung Infections: 21 (8%) n (%)
TEAE: Lymphocyte Count Increased: 2 (<1%) n (%)
TEAE: Memory Loss (Excl Dementia): 1 (<1%) n (%)
TEAE: Metabolic Bone Disorders: 2 (<1%) n (%)
TEAE: Metabolism Tests NEC: 4 (2%) n (%)
TEAE: Migraine Headaches: 5 (2%) n (%)
TEAE: Migraine NOS: 5 (2%) n (%)
TEAE: Mineral and Electrolyte Analyses: 2 (<1%) n (%)
TEAE: Monoarthritis: 1 (<1%) n (%)
TEAE: Monocyte Count Decreased: 1 (<1%) n (%)
TEAE: Monocyte Count Increased: 2 (<1%) n (%)
TEAE: Mononeuropathies: 2 (<1%) n (%)
TEAE: Movement Disorder NOS: 0 n (%)
TEAE: Muscle Cramps: 8 (3%) n (%)
TEAE: Muscle Infections and Inflammations: 0 n (%)
TEAE: Muscle Pains: 2 (<1%) n (%)
TEAE: Muscle Related Signs and Symptoms NEC: 9 (4%) n (%)
TEAE: Muscle Spasms: 1 (<1%) n (%)
TEAE: Muscle Strain: 5 (2%) n (%)
TEAE: Muscle Tone Abnormalities: 1 (<1%) n (%)
TEAE: Muscle, Tendon and Ligament Injuries: 6 (2%) n (%)
TEAE: Musculoskeletal Chest Pain: 1 (<1%) n (%)
TEAE: Musculoskeletal and Connective Tissue Disorders: 56 (22%) n (%)
TEAE: Musculoskeletal and Connective Tissue Signs and Symptoms NEC: 19 (7%) n (%)
TEAE: Musculoskeletal and Soft Tissue Imaging Procedures: 0 n (%)
TEAE: Myalgia: 1 (<1%) n (%)
TEAE: Myasthenia Gravis: 0 n (%)
TEAE: Mycoplasma Infections: 1 (<1%) n (%)
TEAE: Myeloradiculopathy: 0 n (%)
TEAE: Myositis: 0 n (%)
TEAE: Nail Fungal Infection NOS: 0 n (%)
TEAE: Nail Infection NOS: 1 (<1%) n (%)
TEAE: Nasopharyngitis: 18 (7%) n (%)
TEAE: Nausea: 15 (6%) n (%)
TEAE: Nausea and Vomiting Symptoms: 19 (7%) n (%)
TEAE: Neck Pain: 1 (<1%) n (%)
TEAE: Nervous System Disorders: 41 (16%) n (%)
TEAE: Neurological Signs and Symptoms NEC: 4 (2%) n (%)
TEAE: Neuromuscular Junction Dysfunction: 0 n (%)
TEAE: Neutrophil Count Decreased: 3 (1%) n (%)
TEAE: Night Cramps: 1 (<1%) n (%)
TEAE: Nitrite Urine Present: 1 (<1%) n (%)
TEAE: Non-Accidental Overdose: 1 (<1%) n (%)
TEAE: Non-Site Specific Injuries NEC: 5 (2%) n (%)
TEAE: Non-Site Specific Procedural Complications: 3 (1%) n (%)
TEAE: Ophthalmic Function Diagnostic Procedures: 1 (<1%) n (%)
TEAE: Oral Dryness and Saliva Altered: 1 (<1%) n (%)
TEAE: Osteoarthritis Aggravated: 3 (1%) n (%)
TEAE: Osteoarthropathies: 4 (2%) n (%)
TEAE: Osteopenia: 0 n (%)
TEAE: Osteoporosis NOS: 2 (<1%) n (%)
TEAE: Otitis Media NOS: 0 n (%)
TEAE: Overdoses: 1 (<1%) n (%)
TEAE: Pain in Limb: 2 (<1%) n (%)
TEAE: Paraesthesias and Dysaesthesias: 1 (<1%) n (%)
TEAE: Parkinson's Disease NOS: 1 (<1%) n (%)
TEAE: Parkinson's Disease and Parkinsonism: 1 (<1%) n (%)
TEAE: Periorbital Haematoma: 1 (<1%) n (%)
TEAE: Peripheral Swelling: 1 (<1%) n (%)
TEAE: Pharyngitis Streptococcal: 4 (2%) n (%)
TEAE: Physical Examination Procedures: 8 (3%) n (%)
TEAE: Plantar Fasciitis: 2 (<1%) n (%)
TEAE: Pneumonia Mycoplasmal: 1 (<1%) n (%)
TEAE: Pneumonia NOS: 1 (<1%) n (%)
TEAE: Popliteal Bursitis: 0 n (%)
TEAE: Post Procedural Discomfort: 1 (<1%) n (%)
TEAE: Post Procedural Pain: 2 (<1%) n (%)
TEAE: Proctalgia: 0 n (%)
TEAE: Protein Urine Present: 2 (<1%) n (%)
TEAE: Pruritus Ani: 0 n (%)
TEAE: Rectal Cramps: 1 (<1%) n (%)
TEAE: Rectal Disorder NOS: 0 n (%)
TEAE: Rectal Haemorrhage: 4 (2%) n (%)
TEAE: Rectal Tenesmus: 0 n (%)
TEAE: Red Blood Cell Analyses: 1 (<1%) n (%)
TEAE: Red Blood Cells Urine: 0 n (%)
TEAE: Renal Bruit: 0 n (%)
TEAE: Renal Function Analyses: 1 (<1%) n (%)
TEAE: Reproductive Organ and Breast Histopathology Procedures: 1 (<1%) n (%)
TEAE: Respiratory Tract Infection NOS: 1 (<1%) n (%)
TEAE: Rheumatoid Arthritis: 0 n (%)
TEAE: Rheumatoid Arthritis Aggravated: 0 n (%)
TEAE: Rheumatoid Arthropathies: 0 n (%)
TEAE: Rhinoviral Infections: 18 (7%) n (%)
TEAE: Rib Fracture: 1 (<1%) n (%)
TEAE: Road Traffic Accident: 1 (<1%) n (%)
TEAE: Rotator Cuff Syndrome: 0 n (%)
TEAE: Seizures and Seizure Disorders NEC: 1 (<1%) n (%)
TEAE: Sinus Headache: 3 (1%) n (%)
TEAE: Sinusitis Acute NOS: 0 n (%)
TEAE: Sinusitis NOS: 24 (9%) n (%)
TEAE: Site Specific Injuries NEC: 6 (2%) n (%)
TEAE: Skeletal and Cardiac Muscle Analyses: 19 (7%) n (%)
TEAE: Skin Fungal Infection NOS: 1 (<1%) n (%)
TEAE: Skin Infection NOS: 0 n (%)
TEAE: Skin Structures and Soft Tissue Infections: 1 (<1%) n (%)
TEAE: Sleep Apnoea Syndrome: 0 n (%)
TEAE: Sleep Apnoeas: 0 n (%)
TEAE: Soft Tissue Disorders NEC: 2 (<1%) n (%)
TEAE: Somnolence: 1 (<1%) n (%)
TEAE: Speech and Language Abnormalities: 0 n (%)
TEAE: Spinal Cord and Nerve Root Disorders NEC: 0 n (%)
TEAE: Spondylitic Myelopathy: 0 n (%)
TEAE: Spondyloarthropathies: 1 (<1%) n (%)
TEAE: Spondylosis: 1 (<1%) n (%)
TEAE: Staphylococcal Infection NOS: 1 (<1%) n (%)
TEAE: Staphylococcal Infections: 1 (<1%) n (%)
TEAE: Status Epilepticus: 1 (<1%) n (%)
TEAE: Stomach Discomfort: 0 n (%)
TEAE: Streptococcal Infection NOS: 1 (<1%) n (%)
TEAE: Streptococcal Infections: 5 (2%) n (%)
TEAE: Stress Fracture: 1 (<1%) n (%)
TEAE: Temporomandibular Joint Disorder NOS: 1 (<1%) n (%)
TEAE: Tendon Disorders: 0 n (%)
TEAE: Tendonitis: 0 n (%)
TEAE: Tension Headaches: 1 (<1%) n (%)
TEAE: Thoracic Cage Fractures and Dislocations: 1 (<1%) n (%)
TEAE: Tinea Cruris: 0 n (%)
TEAE: Tinea Infections: 1 (<1%) n (%)
TEAE: Tinea Pedis: 1 (<1%) n (%)
TEAE: Tissue Enzyme Analyses NEC: 2 (<1%) n (%)
TEAE: Tongue Coated: 1 (<1%) n (%)
TEAE: Tongue Signs and Symptoms: 1 (<1%) n (%)
TEAE: Tooth Abscess: 6 (2%) n (%)
TEAE: Tooth Disorder NOS: 1 (<1%) n (%)
TEAE: Tooth Impacted: 1 (<1%) n (%)
TEAE: Tooth Infection: 1 (<1%) n (%)
TEAE: Toothache: 2 (<1%) n (%)
TEAE: Total Number of Subjects with at Least One TEAE: 220 (86%) n (%)
TEAE: Transient Global Amnesia: 1 (<1%) n (%)
TEAE: Tremor: 1 (<1%) n (%)
TEAE: Tremor (Excl Congenital): 1 (<1%) n (%)
TEAE: Trigger Finger: 0 n (%)
TEAE: Triglyceride Analyses: 6 (2%) n (%)
TEAE: Umbilical Hernia NOS: 1 (<1%) n (%)
TEAE: Umbilical Hernias: 1 (<1%) n (%)

Source: patent publication US20070093520A1, “Method of treatment of diarrhea-predominant irritable bowel syndrome in a subject” (priority 2005, published 2007)
